Experimental findings from ChEMBL document CHEMBL5465560, “Selectivity Literature for EUbOPEN Chemogenomic Library” (2024) are described below.

Assay [1] deals with Mast/stem cell growth factor receptor Kit (Homo sapiens), P10721 [A829P]. The experiment in a line: (§1) Selectivity interaction (ProQinase) EUB0000171b KIT.
For assay [2], the system named is Mast/stem cell growth factor receptor Kit (Homo sapiens), P10721 [D816H]. The assay is described as §1.
Assay [3] has as its system Mast/stem cell growth factor receptor Kit (Homo sapiens), P10721 [D816V]. The description is as §1.
In assay [4] the test system is Mast/stem cell growth factor receptor Kit (Homo sapiens), P10721 [T670I]. The description is as §1.
For assay [5], the system named is Mast/stem cell growth factor receptor Kit (Homo sapiens), P10721 [V559D,T670I]. The assay is described as §1.
For assay [6], the system named is Mast/stem cell growth factor receptor Kit (Homo sapiens), P10721 [V559D,V654A]. The description is as §1.
In assay [7] the test system is Mast/stem cell growth factor receptor Kit (Homo sapiens), P10721 [V559D]. The assay is described as §1.
The test system of assay [8] is Mast/stem cell growth factor receptor Kit (Homo sapiens), P10721 [V560G]. The description is as §1.
Assay [9] deals with Mast/stem cell growth factor receptor Kit (Homo sapiens), P10721 [V654A]. The description is as §1.
Assay [10] has as its target Mast/stem cell growth factor receptor Kit (Homo sapiens, UniProt P10721). Described as §1.
The target in assay [11] is Tyrosine-protein kinase Fgr (Homo sapiens) (UniProt P09769). The note with it: at 10 µM.
Assay [12] deals with T1, Serine/threonine-protein kinase DCLK1 (Homo sapiens) (UniProt O15075).
T1 sequence (whole entry): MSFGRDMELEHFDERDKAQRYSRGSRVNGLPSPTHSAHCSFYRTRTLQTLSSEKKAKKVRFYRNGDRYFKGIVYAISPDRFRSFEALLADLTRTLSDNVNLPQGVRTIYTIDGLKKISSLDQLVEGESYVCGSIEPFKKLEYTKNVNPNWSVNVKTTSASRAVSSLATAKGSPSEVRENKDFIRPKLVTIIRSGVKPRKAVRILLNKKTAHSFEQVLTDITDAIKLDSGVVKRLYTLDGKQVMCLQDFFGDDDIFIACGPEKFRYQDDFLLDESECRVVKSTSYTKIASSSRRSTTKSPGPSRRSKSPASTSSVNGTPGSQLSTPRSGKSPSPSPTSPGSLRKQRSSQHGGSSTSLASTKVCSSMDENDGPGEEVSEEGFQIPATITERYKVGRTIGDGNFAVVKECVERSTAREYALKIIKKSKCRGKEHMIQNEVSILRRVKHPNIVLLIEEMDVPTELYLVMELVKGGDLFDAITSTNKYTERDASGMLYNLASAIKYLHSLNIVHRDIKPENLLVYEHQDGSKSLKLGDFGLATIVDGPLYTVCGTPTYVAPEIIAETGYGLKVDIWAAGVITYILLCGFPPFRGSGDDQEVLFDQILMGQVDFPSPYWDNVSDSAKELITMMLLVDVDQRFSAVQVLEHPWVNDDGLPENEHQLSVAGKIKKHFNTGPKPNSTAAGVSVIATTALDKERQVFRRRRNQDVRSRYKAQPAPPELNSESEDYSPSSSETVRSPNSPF
The experiment in a line: Selectivity interaction (KinomeScan (DiscoverX)) EUB0000092b DCLK1. The following applies: at 10 µM.

In assay [13] the target is Receptor tyrosine-protein kinase erbB-3 (Homo sapiens) (UniProt P21860). The experiment in a line: Selectivity interaction (KinomeScan (DiscoverX)) EUB0001049a ERBB3. The following applies: at 1 µM.
Assay [14] addresses RAC-beta serine/threonine-protein kinase (Homo sapiens) (UniProt P31751). The experiment in a line: Selectivity interaction (KinomeScan (DiscoverX)) EUB0000666a AKT2. The following applies: at 10 µM.
The target in assay [15] is High affinity nerve growth factor receptor (Homo sapiens, UniProt P04629). Briefly: Selectivity interaction (KinomeScan (DiscoverX)) EUB0000595a NTRK1. The note with it: at 10 µM.
Assay [16] has as its target T2, Dual specificity mitogen-activated protein kinase kinase 4 (Homo sapiens) (UniProt P45985).
T2 sequence (whole entry): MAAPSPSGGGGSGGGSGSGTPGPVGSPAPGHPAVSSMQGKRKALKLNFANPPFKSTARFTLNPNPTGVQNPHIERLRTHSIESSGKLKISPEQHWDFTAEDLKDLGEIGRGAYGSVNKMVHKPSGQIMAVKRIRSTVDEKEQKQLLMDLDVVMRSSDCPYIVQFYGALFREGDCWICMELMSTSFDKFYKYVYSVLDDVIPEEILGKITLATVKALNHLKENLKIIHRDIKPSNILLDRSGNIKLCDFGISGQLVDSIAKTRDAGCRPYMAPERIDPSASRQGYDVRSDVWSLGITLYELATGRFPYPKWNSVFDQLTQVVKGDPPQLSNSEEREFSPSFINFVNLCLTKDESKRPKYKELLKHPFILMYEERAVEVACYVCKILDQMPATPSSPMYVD
The experiment in a line: Selectivity interaction (KinomeScan (DiscoverX)) EUB0001619a MAP2K4. The note with it: at 1 µM.

The target in assay [17] is T3, SNF-related serine/threonine-protein kinase (Homo sapiens) (UniProt Q9NRH2).
T3 sequence (whole entry): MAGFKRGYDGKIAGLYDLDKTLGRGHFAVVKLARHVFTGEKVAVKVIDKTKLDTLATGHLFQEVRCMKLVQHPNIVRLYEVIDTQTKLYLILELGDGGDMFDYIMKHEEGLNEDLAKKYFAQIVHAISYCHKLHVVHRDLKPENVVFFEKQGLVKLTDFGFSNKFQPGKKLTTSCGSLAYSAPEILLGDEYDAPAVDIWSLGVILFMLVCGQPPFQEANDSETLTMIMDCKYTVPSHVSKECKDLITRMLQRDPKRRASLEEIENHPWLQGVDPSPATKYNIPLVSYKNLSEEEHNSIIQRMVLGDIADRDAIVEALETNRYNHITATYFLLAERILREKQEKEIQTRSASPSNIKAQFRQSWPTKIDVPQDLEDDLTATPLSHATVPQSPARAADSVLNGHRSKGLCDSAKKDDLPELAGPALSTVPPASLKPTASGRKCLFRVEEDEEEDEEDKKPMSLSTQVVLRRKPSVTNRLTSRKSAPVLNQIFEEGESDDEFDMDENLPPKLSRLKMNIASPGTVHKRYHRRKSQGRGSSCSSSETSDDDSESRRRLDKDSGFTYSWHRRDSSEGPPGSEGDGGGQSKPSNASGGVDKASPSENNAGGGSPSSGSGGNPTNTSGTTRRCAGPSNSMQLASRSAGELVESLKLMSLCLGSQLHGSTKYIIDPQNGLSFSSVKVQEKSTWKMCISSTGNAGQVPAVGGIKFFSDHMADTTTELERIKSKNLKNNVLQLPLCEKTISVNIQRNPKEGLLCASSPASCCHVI
Briefly: Selectivity interaction (KinomeScan (DiscoverX)) EUB0000618a SNRK. The following applies: at 10 µM.

Chain of Mast/stem cell growth factor receptor Kit (Homo sapiens), P10721 [V559D,V654A] (P10721 whole entry V559D/V654A): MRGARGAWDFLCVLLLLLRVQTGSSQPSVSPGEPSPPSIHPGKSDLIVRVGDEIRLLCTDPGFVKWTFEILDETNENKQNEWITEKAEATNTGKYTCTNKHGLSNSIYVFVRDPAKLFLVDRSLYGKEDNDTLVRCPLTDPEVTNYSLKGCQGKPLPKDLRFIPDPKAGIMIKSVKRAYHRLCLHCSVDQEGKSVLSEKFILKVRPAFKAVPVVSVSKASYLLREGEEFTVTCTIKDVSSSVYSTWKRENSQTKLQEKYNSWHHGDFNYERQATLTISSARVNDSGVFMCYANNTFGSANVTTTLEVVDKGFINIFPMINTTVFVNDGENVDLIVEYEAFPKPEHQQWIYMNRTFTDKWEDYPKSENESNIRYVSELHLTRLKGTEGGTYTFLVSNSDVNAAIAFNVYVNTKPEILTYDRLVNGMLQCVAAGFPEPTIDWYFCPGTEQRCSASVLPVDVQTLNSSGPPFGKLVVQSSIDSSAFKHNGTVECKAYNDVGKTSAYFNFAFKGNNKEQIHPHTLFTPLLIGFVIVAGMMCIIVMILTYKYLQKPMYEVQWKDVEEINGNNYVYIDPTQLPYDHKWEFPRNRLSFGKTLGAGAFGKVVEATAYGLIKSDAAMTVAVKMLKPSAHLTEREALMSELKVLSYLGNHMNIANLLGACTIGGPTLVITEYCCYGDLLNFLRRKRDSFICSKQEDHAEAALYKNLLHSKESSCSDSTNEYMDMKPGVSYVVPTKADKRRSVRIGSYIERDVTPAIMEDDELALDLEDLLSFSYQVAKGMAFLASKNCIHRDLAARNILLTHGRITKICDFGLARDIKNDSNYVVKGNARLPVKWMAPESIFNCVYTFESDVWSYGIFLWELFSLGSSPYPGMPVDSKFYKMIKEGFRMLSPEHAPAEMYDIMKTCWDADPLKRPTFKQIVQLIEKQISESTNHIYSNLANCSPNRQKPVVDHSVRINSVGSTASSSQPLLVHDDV
Chain of Mast/stem cell growth factor receptor Kit (Homo sapiens), P10721 [A829P] (P10721 whole entry A829P): as the sequence (P10721 whole entry V559D/V654A) above, with D559V, A654V, A829P counted along it
Chain of Mast/stem cell growth factor receptor Kit (Homo sapiens), P10721 [V559D,T670I] (P10721 whole entry V559D/T670I): as the sequence (P10721 whole entry V559D/V654A) above, with A654V, T670I counted along it
Chain of Mast/stem cell growth factor receptor Kit (Homo sapiens), P10721 [V559D] (P10721 whole entry V559D): as the sequence (P10721 whole entry V559D/V654A) above, with A654V counted along it
Chain of Mast/stem cell growth factor receptor Kit (Homo sapiens), P10721 [V560G] (P10721 whole entry V560G): as the sequence (P10721 whole entry V559D/V654A) above, with D559V, V560G, A654V counted along it

Consider `C=CC(=O)Nc1cccc(C(=O)Nc2ccc(Nc3cc(-c4[nH]c(SC)nc4C)ccn3)cc2)c1`, for which the % of control was 68% in assay [1] (at 1 µM); 75% in assay [1] (at 5 µM); 91% in assay [2] (at 1 µM); 66% in assay [2] (at 5 µM); 87% in assay [3] (at 1 µM); 55% in [3] (at 5 µM). The % of control in assay [4] (at 1 µM) is 107%; in assay [4] (at 5 µM) it was 98%; in assay [5] (at 1 µM), 96%; in [5] (at 5 µM), 77%; in assay [6] (at 1 µM), 94%; in [6] (at 5 µM), 85%. The % of control was determined as 102% in [7] (at 1 µM); 94% in [7] (at 5 µM); 95% in [8] (at 1 µM); 67% in [8] (at 5 µM); 103% in [9] (at 1 µM); 80% in assay [9] (at 5 µM). The % of control in [10] (at 1 µM) worked out at 98%; in assay [10] (at 5 µM), 101%.

With `CCN(CC)CCCCNc1ncc2cc(-c3cc(OC)cc(OC)c3)c(NC(=O)NC(C)(C)C)nc2n1`, the % of control in assay [11] amounted to 100%.

With `CCC(=O)N1CCN(c2ccc(-n3c(=O)ccc4cnc5ccc(-c6cnc7ccccc7c6)cc5c43)cc2C(F)(F)F)CC1`, the % of control in [12] turned out to be 100%.

In assay [13], `COc1cc(Nc2nc(C)cc(-c3cnn4nc(OC)ccc34)n2)cc(C(F)(F)F)c1` registered a % of control of 100%.

As to `O=C(NOC[C@H](O)CO)c1ccc(F)c(F)c1Nc1ccc(I)cc1F`, the % of control in assay [14] came out at 100%.

Molecule `COCC(=O)NC/C=C/c1ccc2ncnc(Nc3ccc(Oc4ccc(C)nc4)c(C)c3)c2c1` [CP-724714] displayed a % of control in assay [15] of 89%.

`N#Cc1cccc(-c2c[nH]c3ncnc(N4CCOCC4)c23)c1` gave a % of control in [16] of 100%.

On to `O[C@H]1CC[C@H](Nc2ncc3nc(Nc4c(F)cc(F)cc4F)n([C@H]4CCOC4)c3n2)CC1`, for which the % of control in [17] was 100%.
